In publication PMC3006138, “Fexinidazole – A New Oral Nitroimidazole Drug Candidate Entering Clinical Development for the Treatment of Sleeping Sickness” (PLoS Neglected Tropical Diseases, 2010):

Columns and labels:
Excretion balance = format: in vivo, rat; details: for excreted percent of dose, faeces / excreted percent of dose, urine: 800 mg/kg po; for radioactivity eliminated: within 48 h
Protocol: Excretion balance in rats was carried out using a single oral dose of radiolabelled fexinidazole administered at the dose of 800 mg/kg (approximately 3.7 MBq/kg, 100 µCi/kg) by gastric gavage to three male albino Sprague Dawley rats. […]
This study was conducted according to Protocol N° 0162-2008 and to Amendment 1. A copy of the experimental protocol is included in Appendix 1; a copy of the amendment is included […]
FEXINIDAZOLE is a 5-nitroimidazole derivative biologically active against Trypanosoma parasites (T.b. rhodesiense and T.b. brucei) and useful in the treatment of the Human African Trypanosomiasis (HAT), known as sleeping sickness. FEXINIDAZOLE is a compound currently under development by the Sponsor.
The objective of this study was to obtain information on the elimination of radioactive drug-related material in urine and faeces following oral administration of [14C]-FEXINIDAZOLE (800 mg/kg) to male Sprague Dawley rats.
The albino Sprague Dawley rat was chosen as the species for this study since it was one of the species used in the toxicological evaluation of the test compound.
Only male animals were used as no gender differences were expected with respect to the aim of the study. The oral route of administration was chosen as this is the intended therapeutic route. The dose level was selected in agreement with the Study Sponsor and it is within the pharmacological relevant range. No overt toxicity was expected after single dosing at this […]
The study was conducted on 3 male animals after single oral administration of [14C]- FEXINIDAZOLE (800 mg/kg, approximately 3.7 MBq/kg, 100 µCi/kg).
Urine and faeces were collected up to 96 hours after administration. The radioactivity levels of drug-related material were determined in each collected sample by Liquid Scintillation […]
A summary of the experimental design is reported below:
Animal no. Date of Dosing Administered Dose Samples collected and (oral administration) analyzed
100 µCi/kg washes, carcass and skin […]
The test formulations were prepared by suspending unlabelled FEXINIDAZOLE and [14C]- FEXINIDAZOLE (see section 5.1) in 5% Tween 80 and 0.5% Methyl cellulose 400 cP (Methocel) in water, in order to obtain [14C]-FEXINIDAZOLE at the final target concentration of 80 mg/mL corresponding to a radioactivity concentration of about 370 […]
The test formulation was prepared by suspending an appropriate amount of unlabelled FEXINIDAZOLE in the dose vehicle. This formulation was homogenised using a Potter-Elvehjem homogenizer apparatus (teflon pestle of approx. 30 mm x 53 mm and glass tube of 40 mL), in order to obtain a fine suspension by up-and-down strokes, gently made by hand. The formulation was then collected and transferred from the homogeniser glass tube to the glass pot containing the [14C]-FEXINIDAZOLE.
During the preparation the test formulation was protected from light as far as possible.
The radioactivity concentration and homogeneity of the test formulation were determined, before administration, by liquid scintillation counting of triplicate weighed aliquots of test formulation. The radiolabelled test formulation was used immediately after formulation.
6.7.1. Administered Doses
The dose of [14C]-FEXINIDAZOLE was orally administered by gastric gavage at the target dose level of 800 mg/kg (radioactivity dose of about 3.7 MBq/kg, 100 µCi/kg) and at a target dose volume of about 10 mL/kg.
Individual doses were prepared for each animal by weighing the appropriate amount of the test formulation in an appropriate syringe for oral administration. The amount of dose administered to each animal was determined by weighing the filled syringe before the treatment and the empty syringe after dose administration. The actual dose received by each animal was calculated using the weight of the administered formulation, the radioactivity concentration and the final specific activity of the test material.
The actual doses received by each animal are documented in Table 1. […]

CYP3A5 = CYP3A5 (Homo sapiens, UniProt P20815); assay: In vitro CYP-450 metabolism; format: in vitro ADME; details: 1.0 µM, up to 60 min
Sequence of CYP3A5 (P20815 whole entry): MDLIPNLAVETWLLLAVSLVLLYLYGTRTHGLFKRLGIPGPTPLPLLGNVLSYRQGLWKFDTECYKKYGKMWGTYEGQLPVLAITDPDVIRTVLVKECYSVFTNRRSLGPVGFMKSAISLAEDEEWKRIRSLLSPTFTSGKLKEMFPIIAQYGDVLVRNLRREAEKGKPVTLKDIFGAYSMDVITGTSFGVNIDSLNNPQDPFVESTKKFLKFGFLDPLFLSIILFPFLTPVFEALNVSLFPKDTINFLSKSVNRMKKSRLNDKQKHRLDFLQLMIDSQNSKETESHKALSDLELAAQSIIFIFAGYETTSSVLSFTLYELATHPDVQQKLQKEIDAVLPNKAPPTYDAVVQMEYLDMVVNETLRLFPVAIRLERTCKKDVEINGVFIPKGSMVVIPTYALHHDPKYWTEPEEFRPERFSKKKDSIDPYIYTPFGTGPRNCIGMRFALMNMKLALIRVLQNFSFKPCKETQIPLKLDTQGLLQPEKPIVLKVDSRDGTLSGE
Protocol: (§1) Duplicate samples of human recombinant CYP enzyme isotypes CYP1A2, CYP2B6, CYP2C8, CYP2C9, CYP2C19, CYP2D6, CYP3A4, CYP3A5 (10–30 pmol/mL) with NADPH as cofactor were incubated with fexinidazole, fexinidazole sulfoxide, or fexinidazole sulfone at a concentration of 1.0 µM for up to 60 min (pH 7.4, 37°C). Detection of the compounds was via HPLC-MS.

CYP1A2 = CYP1A2 (Homo sapiens, UniProt P05177); assay: In vitro CYP-450 metabolism; format: in vitro ADME; details: 1.0 µM, up to 60 min
Sequence of CYP1A2 (P05177 whole entry): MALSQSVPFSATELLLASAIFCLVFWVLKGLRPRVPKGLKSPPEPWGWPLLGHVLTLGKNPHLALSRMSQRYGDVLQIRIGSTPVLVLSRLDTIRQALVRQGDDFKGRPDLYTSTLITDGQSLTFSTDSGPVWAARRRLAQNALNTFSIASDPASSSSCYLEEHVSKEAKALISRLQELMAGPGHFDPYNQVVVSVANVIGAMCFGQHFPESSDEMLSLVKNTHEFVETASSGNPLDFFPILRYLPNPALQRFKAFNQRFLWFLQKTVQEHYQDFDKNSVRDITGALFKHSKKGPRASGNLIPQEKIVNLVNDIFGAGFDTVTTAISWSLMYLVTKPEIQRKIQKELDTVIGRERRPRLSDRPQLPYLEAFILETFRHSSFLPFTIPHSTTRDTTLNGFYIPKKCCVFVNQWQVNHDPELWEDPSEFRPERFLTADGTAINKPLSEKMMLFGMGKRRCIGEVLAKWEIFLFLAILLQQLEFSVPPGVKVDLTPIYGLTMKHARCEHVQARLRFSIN
Protocol: as §1

CYP2C9 = CYP2C9 (Homo sapiens, UniProt P11712); assay: In vitro CYP-450 metabolism; format: in vitro ADME; details: 1.0 µM, up to 60 min
Sequence of CYP2C9 (P11712 whole entry): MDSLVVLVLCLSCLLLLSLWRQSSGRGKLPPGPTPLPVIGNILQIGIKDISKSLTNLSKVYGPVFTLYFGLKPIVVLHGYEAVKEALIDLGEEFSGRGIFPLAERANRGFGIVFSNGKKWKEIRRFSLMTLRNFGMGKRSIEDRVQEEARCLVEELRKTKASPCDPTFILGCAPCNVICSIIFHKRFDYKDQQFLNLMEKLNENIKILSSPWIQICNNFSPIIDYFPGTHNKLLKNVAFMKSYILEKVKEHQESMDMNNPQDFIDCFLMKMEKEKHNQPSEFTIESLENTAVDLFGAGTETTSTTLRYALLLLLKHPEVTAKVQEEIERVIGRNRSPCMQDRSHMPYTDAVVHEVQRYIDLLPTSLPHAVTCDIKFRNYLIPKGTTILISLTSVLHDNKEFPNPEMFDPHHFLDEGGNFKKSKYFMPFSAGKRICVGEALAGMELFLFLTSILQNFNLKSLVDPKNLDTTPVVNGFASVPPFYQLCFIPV
Protocol: as §1

CYP3A4 = CYP3A4 (Homo sapiens, UniProt P08684); assay: In vitro CYP-450 metabolism; format: in vitro ADME; details: 1.0 µM, up to 60 min
Sequence of CYP3A4 (P08684 whole entry): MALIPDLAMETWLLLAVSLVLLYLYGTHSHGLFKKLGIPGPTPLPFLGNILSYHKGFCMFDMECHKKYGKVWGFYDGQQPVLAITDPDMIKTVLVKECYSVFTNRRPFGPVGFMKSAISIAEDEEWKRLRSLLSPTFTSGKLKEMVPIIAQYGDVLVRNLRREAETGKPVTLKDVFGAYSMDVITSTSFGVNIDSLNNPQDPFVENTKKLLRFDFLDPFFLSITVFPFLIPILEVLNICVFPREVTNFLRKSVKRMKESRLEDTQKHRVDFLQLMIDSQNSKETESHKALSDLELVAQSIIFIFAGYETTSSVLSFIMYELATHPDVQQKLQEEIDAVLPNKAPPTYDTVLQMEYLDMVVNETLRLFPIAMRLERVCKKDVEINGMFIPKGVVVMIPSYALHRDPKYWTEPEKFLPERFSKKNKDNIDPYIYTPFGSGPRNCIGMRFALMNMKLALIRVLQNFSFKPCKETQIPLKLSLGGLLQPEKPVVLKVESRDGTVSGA
Protocol: as §1

CYP2B6 = CYP2B6 (Homo sapiens, UniProt P20813); assay: In vitro CYP-450 metabolism; format: in vitro ADME; details: 1.0 µM, up to 60 min
Sequence of CYP2B6 (P20813 whole entry): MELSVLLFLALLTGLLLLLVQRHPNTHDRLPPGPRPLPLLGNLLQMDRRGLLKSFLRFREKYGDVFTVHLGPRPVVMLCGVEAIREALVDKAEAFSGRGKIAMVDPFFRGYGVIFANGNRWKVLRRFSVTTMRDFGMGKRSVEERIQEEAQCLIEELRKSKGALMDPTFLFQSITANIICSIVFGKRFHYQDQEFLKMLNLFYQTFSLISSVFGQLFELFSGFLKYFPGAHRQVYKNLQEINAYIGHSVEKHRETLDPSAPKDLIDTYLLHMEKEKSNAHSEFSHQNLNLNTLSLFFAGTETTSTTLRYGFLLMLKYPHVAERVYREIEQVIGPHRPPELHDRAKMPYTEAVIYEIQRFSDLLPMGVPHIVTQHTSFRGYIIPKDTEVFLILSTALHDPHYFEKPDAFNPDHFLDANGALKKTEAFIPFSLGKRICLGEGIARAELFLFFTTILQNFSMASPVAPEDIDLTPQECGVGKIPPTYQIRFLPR
Protocol: as §1

CYP2C8 = CYP2C8 (Homo sapiens, UniProt P10632); assay: In vitro CYP-450 metabolism; format: in vitro ADME; details: 1.0 µM, up to 60 min
Sequence of CYP2C8 (P10632 whole entry): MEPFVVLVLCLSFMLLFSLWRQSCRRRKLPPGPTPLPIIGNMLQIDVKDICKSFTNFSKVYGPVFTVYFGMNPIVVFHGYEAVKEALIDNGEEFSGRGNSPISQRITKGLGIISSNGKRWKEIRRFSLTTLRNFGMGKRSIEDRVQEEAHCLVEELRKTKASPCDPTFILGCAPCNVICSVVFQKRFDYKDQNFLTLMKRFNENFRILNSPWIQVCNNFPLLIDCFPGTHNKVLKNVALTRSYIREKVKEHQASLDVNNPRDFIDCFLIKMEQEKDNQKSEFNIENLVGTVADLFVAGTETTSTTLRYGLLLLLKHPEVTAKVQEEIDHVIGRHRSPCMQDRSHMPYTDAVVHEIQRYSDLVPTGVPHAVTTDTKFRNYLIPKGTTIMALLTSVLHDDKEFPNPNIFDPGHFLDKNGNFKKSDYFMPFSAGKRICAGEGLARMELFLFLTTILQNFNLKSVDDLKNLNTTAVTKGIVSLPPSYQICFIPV
Protocol: as §1

CYP2C19 = CYP2C19 (Homo sapiens, UniProt P33261); assay: In vitro CYP-450 metabolism; format: in vitro ADME; details: 1.0 µM, up to 60 min
Sequence of CYP2C19 (P33261 whole entry): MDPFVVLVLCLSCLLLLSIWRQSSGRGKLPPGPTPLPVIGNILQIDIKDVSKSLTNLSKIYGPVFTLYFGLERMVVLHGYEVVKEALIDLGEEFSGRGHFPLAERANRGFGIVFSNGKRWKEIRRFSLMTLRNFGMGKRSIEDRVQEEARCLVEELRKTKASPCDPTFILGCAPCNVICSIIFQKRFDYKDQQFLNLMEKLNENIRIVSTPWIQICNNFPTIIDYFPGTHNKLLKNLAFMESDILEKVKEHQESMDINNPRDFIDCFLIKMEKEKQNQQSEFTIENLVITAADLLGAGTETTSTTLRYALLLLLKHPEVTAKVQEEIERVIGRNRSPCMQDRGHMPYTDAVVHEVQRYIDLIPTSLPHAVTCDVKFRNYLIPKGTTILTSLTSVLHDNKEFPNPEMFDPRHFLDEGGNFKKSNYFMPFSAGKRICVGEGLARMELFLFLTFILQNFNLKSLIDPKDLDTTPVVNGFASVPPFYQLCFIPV
Protocol: as §1

[1] = 0-96 h, listed as [14C]-FEXINIDAZOLE

## CSc1ccc(OCc2ncc([N+](=O)[O-])n2C)cc1 [Fexinidazole, 1-methyl-2-((p-(methylthio)phenoxy)methyl)-5-nitroimidazole]
Excretion balance; 0-96 h
  overall recovery of total radioactivity: approximately 93%
  percent of dose, cage washing: 2.73%
  radioactivity recovered in all the excreta (including cage washes): Approximately 91.4%
  excreted percent of dose, faeces: 59%
  excreted percent of dose, urine: 30%
Excretion balance; [1]
  overall recovery of total radioactivity: 92.87%
  excreted percent of dose, faeces: 58.77%
  excreted percent of dose, urine: 29.92%
Excretion balance; 96 h
  dose recovered from the carcass (and skin): About 1.4%
  percent of dose, carcass: 1.01%
  percent of dose, skin: 0.43%
Excretion balance
  radioactivity eliminated: 84%
Excretion balance; listed as [14C]-FEXINIDAZOLE
  radioactivity eliminated: about 84.3%
CYP3A5
  metabolism by the enzyme: extensively metabolised
CYP1A2
  metabolism by the enzyme: extensively metabolised
CYP2C9
  metabolism by the enzyme: inactive
CYP3A4
  metabolism by the enzyme: extensively metabolised
CYP2B6
  metabolism by the enzyme: extensively metabolised
CYP2C8
  metabolism by the enzyme: inactive
CYP2C19
  metabolism by the enzyme: extensively metabolised
